Source: PubChem BioAssay AID220 (DTP/NCI, 2004)
Where “and” joins values, the source holds several entries; their conditions need not be identical. Identical values can stand only once. Results filed as inconclusive are left out.

Tested on: CD8F1 mice, subcutaneous mammary adenocarcinoma, T/C%
Assay: NCI In Vivo Anticancer Drug Screen. Data for tumor model Mammary Adenocarcinoma CD8F1 (subcutaneous) in CD8F1
Settings: higher = larger tumour
Description: The antitumor activity of compounds was measured in mice bearing transplantable tumors. Survival or tumor size were measured and the results are expressed as the measurement made in the treated group (T) divided by the measurement made in the vehicle treated control group (C). The tumor model used in this assay is Mammary Adenocarcinoma CD8F1 (subcutaneous) in CD8F1

[1] = endpoint: median tumor weight (est.), dose: 25.0 mg/kg/injection, schedule: Q07DX005 (ip), vehicle: saline
[2] = endpoint: median tumor weight (est.), dose: 50.0 mg/kg/injection, schedule: Q07DX005 (ip), vehicle: saline

In the case of C[CH2][Sn]([CH2]C)([O]S(C)(=O)=O)[O]S(C)(=O)=O, the T/C (endpoint: median tumor weight change, dose: 3.9 mg/kg/injection, schedule: Q01DX001 (ip), vehicle: saline) is reported as 88 % of control, the T/C (endpoint: median tumor weight change, dose: 7.81 mg/kg/injection, schedule: Q01DX001 (ip), vehicle: saline) is reported as 60 % of control and the T/C (endpoint: median tumor weight change, dose: 15.62 mg/kg/injection, schedule: Q01DX001 (ip), vehicle: saline) is reported as 103 % of control.
In the case of COc1cc2c(cc1O)N=C[C@@H]1CCC(O)N1C2=O (mixture of isomers), the T/C (endpoint: median tumor weight (est.), dose: 2.0 mg/kg/injection, schedule: Q07DX005 (ip), vehicle: saline) is reported as 103 % of control, the T/C (endpoint: median tumor weight (est.), dose: 4.0 mg/kg/injection, schedule: Q07DX005 (ip), vehicle: saline) is reported as 79 % of control and the T/C (endpoint: median tumor weight (est.), dose: 8.0 mg/kg/injection, schedule: Q07DX005 (ip), vehicle: saline) is reported as 160 % of control.
NC1(C(=O)O)CCCC1 was tested, and the T/C (endpoint: mean tumor weight, dose: 5.0 mg/kg/injection, schedule: Q01DX009 (ip), vehicle: saline) was 89 % of control, the T/C (endpoint: mean tumor weight, dose: 10.0 mg/kg/injection, schedule: Q01DX009 (ip), vehicle: saline) was 30 % of control and the T/C (endpoint: mean tumor weight, dose: 12.5 mg/kg/injection, schedule: Q07DX005 (ip), vehicle: saline) was 40 % of control. The T/C (endpoint: mean tumor weight, dose: 12.5 mg/kg/injection, schedule: Q07DX007 (ip), vehicle: saline) was 104 % of control, the T/C (endpoint: mean tumor weight, dose: 20.0 mg/kg/injection, schedule: Q01DX009 (ip), vehicle: saline) was 5 % of control and the T/C (endpoint: mean tumor weight, dose: 25.0 mg/kg/injection, schedule: Q07DX004 (ip), vehicle: saline) was 81 % of control. The T/C (endpoint: mean tumor weight, dose: 25.0 mg/kg/injection, schedule: Q07DX005 (ip), vehicle: saline) was 122 % of control, the T/C (endpoint: mean tumor weight, dose: 25.0 mg/kg/injection, schedule: Q07DX007 (ip), vehicle: saline) was 123 % of control and the T/C (endpoint: mean tumor weight, dose: 25.0 mg/kg/injection, schedule: Q07DX008 (ip), vehicle: saline) was 119 % of control. The T/C (endpoint: mean tumor weight, dose: 50.0 mg/kg/injection, schedule: Q07DX004 (ip), vehicle: saline) was 6 % of control, the T/C (endpoint: mean tumor weight, dose: 50.0 mg/kg/injection, schedule: Q07DX005 (ip), vehicle: saline) was 9 % of control and the T/C (endpoint: mean tumor weight, dose: 50.0 mg/kg/injection, schedule: Q07DX007 (ip), vehicle: saline) was 5 % of control. The T/C (endpoint: mean tumor weight, dose: 50.0 mg/kg/injection, schedule: Q07DX008 (ip), vehicle: saline) was 43 % of control, the T/C [1] was 39 % of control and the T/C [2] was 28 % of control.
In the case of O=C(N[C@H](CO)[C@H](O)c1ccc([N+](=O)[O-])cc1)C(Cl)Cl, the T/C (endpoint: median tumor weight change, dose: 62.5 mg/kg/injection, schedule: Q01DX001 (ip), vehicle: saline with Tween-80) is reported as 102 % of control, the T/C (endpoint: median tumor weight change, dose: 125.0 mg/kg/injection, schedule: Q01DX001 (ip), vehicle: saline with Tween-80) is reported as 91 % of control and the T/C (endpoint: median tumor weight change, dose: 250.0 mg/kg/injection, schedule: Q01DX001 (ip), vehicle: saline with Tween-80) is reported as 92 % of control. The T/C (endpoint: median tumor weight change, dose: 500.0 mg/kg/injection, schedule: Q01DX001 (ip), vehicle: saline with Tween-80) was 73 % of control and the T/C (endpoint: median tumor weight change, dose: 1000.0 mg/kg/injection, schedule: Q01DX001 (ip), vehicle: saline with Tween-80) was 98 % of control.
For OCC1OC(n2cnc3cc(Cl)c(Cl)cc32)C(O)C1O (stereo not given), the T/C (endpoint: median tumor weight (est.), dose: 12.5 mg/kg/injection, schedule: Q07DX005 (ip), vehicle: saline with Tween-80) was 79 % of control, the T/C (endpoint: median tumor weight (est.), dose: 25.0 mg/kg/injection, schedule: Q07DX005 (ip), vehicle: saline with Tween-80) was 89 % of control and 92 % of control and the T/C (endpoint: median tumor weight (est.), dose: 200.0 mg/kg/injection, schedule: Q07DX005 (ip), vehicle: saline with Tween-80) was 80 % of control.
With c1cc2n(n1)CCN2 the T/C (endpoint: median tumor weight (est.), dose: 12.5 mg/kg/injection, schedule: Q07DX005 (ip), vehicle: saline) was 76 % of control, the T/C [1] was 94 % of control and the T/C [2] was 102 % of control. For the same compound, the T/C (endpoint: median tumor weight (est.), dose: 100.0 mg/kg/injection, schedule: Q07DX005 (ip), vehicle: saline) was 85 % of control, the T/C (endpoint: median tumor weight (est.), dose: 200.0 mg/kg/injection, schedule: Q07DX005 (ip), vehicle: saline) was 54 % of control and the T/C (endpoint: median tumor weight (est.), dose: 400.0 mg/kg/injection, schedule: Q07DX005 (ip), vehicle: saline) was 46 % of control.
